Measurements taken from patent publication US20250163054A1, “SUBSTITUTED BICYCLIC HETEROARYL COMPOUNDS USEFUL AS INHIBITORS OF TLR9” (Bristol-Myers Squibb Company, priority 2022, published 2025).
pIC50: −log10 of the molar value.

Experiments:
Type in all cases: cell-based
human TLR7 = molecular target: T1, human TLR7 (Homo sapiens, UniProt Q9NYK1); assay: TLR7/8/9 Inhibition Reporter Assays (TLR7); settings: HEK-Blue cells overexpressing human TLR7, SEAP reporter, stimulated with TLR7 ligand gardiquimod
T1 construct: host or cells: HEK-Blue cells (HEK293-derived reporter line)
T1 sequence (Q9NYK1 27-1049): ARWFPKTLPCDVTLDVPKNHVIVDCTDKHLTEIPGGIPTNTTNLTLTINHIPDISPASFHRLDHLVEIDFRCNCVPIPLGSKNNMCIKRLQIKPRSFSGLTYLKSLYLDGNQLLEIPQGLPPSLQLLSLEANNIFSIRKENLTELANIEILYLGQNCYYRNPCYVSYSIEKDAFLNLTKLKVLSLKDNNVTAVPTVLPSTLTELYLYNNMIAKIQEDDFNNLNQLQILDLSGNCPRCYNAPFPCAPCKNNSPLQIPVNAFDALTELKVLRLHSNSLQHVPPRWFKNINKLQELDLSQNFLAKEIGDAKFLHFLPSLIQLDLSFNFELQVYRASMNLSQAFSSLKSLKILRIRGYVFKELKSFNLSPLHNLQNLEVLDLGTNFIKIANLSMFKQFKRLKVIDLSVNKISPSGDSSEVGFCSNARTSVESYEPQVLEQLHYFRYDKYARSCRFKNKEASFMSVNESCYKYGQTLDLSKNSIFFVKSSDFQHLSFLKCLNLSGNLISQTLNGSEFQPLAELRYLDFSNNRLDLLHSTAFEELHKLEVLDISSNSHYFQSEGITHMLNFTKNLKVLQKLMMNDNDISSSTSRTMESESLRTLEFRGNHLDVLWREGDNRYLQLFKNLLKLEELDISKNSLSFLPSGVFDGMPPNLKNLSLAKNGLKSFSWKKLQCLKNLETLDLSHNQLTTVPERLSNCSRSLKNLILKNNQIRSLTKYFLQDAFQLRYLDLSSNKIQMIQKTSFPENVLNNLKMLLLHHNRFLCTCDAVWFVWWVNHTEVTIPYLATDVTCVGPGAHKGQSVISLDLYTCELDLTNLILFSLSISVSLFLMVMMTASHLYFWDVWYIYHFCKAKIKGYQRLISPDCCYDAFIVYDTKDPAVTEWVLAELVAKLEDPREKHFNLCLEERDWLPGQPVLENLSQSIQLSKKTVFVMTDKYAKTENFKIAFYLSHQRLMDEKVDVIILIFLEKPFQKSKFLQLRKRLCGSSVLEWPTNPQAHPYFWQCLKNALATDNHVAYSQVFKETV
In short: (§1)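 HEK-Blue cells overexpressing human TLR7, TLR8 or TLR9 with NF-κB/AP-1-driven SEAP reporter, pre-treated 60 min with compound ([…]). Stimulated with […] (TLR7), […] (TLR8) or ODN2006 200 nM (TLR9), then 22 h at 37° C; SEAP measured, % inhibition relative to agonist-plus-DMSO and known-inhibitor wells.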

human TLR8 = molecular target: T2, human TLR8 (Homo sapiens, UniProt Q9NR97); assay: TLR7/8/9 Inhibition Reporter Assays (TLR8); settings: HEK-Blue cells overexpressing human TLR8, SEAP reporter, stimulated with TLR8 ligand R848
T2 construct: host or cells: HEK-Blue cells (HEK293-derived reporter line)
T2 sequence (Q9NR97 27-1041): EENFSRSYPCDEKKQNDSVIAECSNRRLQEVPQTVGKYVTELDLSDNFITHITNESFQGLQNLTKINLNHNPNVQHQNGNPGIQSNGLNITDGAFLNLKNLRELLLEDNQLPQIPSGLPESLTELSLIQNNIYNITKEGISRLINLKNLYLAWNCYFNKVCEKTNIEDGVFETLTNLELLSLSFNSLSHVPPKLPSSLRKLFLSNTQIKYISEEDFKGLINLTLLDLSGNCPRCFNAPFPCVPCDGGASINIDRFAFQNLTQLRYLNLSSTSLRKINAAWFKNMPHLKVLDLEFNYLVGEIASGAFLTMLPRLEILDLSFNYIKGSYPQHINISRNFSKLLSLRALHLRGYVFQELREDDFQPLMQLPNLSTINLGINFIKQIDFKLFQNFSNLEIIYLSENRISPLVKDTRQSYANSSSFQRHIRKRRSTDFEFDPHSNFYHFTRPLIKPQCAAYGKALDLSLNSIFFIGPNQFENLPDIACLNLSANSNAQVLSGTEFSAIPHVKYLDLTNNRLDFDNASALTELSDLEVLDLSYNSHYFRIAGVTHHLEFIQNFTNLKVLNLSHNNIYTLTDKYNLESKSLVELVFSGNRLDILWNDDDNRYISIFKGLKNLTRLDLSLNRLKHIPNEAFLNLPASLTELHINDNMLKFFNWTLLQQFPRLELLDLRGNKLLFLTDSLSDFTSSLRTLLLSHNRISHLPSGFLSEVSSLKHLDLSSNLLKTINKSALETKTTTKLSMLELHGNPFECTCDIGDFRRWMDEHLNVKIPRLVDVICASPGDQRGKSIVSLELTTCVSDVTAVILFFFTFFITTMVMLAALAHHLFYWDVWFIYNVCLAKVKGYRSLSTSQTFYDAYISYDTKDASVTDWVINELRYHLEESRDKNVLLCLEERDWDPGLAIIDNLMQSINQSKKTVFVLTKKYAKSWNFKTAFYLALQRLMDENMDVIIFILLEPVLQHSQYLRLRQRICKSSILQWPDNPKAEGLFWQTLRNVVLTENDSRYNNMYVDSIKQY
In short: as §1

human TLR9 = molecular target: T3, human TLR9 (Homo sapiens, UniProt Q9NR96); assay: TLR7/8/9 Inhibition Reporter Assays (TLR9); settings: HEK-Blue cells overexpressing human TLR9, SEAP reporter, stimulated with TLR9 ligand ODN2006
T3 construct: host or cells: HEK-Blue cells (HEK293-derived reporter line)
T3 sequence (Q9NR96 26-1032): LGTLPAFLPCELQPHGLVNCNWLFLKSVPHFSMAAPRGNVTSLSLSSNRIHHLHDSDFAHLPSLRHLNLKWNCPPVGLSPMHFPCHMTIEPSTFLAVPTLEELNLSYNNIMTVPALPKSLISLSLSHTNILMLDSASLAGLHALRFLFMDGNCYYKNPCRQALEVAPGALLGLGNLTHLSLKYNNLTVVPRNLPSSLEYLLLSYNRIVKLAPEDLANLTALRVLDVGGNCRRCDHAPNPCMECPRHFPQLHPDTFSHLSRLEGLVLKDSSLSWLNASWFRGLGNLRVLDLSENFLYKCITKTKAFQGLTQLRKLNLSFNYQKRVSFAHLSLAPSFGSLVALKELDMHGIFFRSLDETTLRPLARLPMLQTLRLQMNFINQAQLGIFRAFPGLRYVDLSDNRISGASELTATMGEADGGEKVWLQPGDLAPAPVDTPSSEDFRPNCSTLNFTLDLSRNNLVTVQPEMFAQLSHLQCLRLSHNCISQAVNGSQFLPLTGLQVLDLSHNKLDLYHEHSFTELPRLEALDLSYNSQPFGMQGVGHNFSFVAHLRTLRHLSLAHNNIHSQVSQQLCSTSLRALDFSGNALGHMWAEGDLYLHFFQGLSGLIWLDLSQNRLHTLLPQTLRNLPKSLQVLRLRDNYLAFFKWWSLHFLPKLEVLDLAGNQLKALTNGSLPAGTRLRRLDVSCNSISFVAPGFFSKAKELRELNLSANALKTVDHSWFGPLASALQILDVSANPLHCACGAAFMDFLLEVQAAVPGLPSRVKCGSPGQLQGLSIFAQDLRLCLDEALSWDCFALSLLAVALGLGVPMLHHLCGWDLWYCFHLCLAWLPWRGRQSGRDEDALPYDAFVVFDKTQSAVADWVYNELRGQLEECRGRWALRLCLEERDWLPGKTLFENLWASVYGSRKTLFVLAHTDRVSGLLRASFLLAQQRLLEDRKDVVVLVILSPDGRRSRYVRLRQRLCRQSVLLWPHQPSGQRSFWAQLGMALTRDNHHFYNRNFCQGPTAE
In short: as §1

Row | Structure (SMILES) | pIC50 (human TLR7) | pIC50 (human TLR8) | pIC50 (human TLR9)
1 | CC(C)CN1CCC(N2CCC(c3cc4c(cn3)nc(-c3ccc(S(C)(=O)=O)cc3)n4C)CC2)CC1 [Example 31, 6-(1′-isobutyl-[1,4′-bipiperidin]-4-yl)-1-methyl-2-(4-(methylsulfonyl)phenyl)-1H-imidazo[4,5-c]pyridine] | 5.32 | < 4.60 | 6.62
2 | Cc1nc(-c2ccc(N3CCN(CC(C)C)CC3)cc2)cc2c1nc(-c1ccc(S(C)(=O)=O)cc1)n2C [Example 7, 6-(4-(4-isobutylpiperazin-1-yl)phenyl)-1,4-dimethyl-2-(4-(methylsulfonyl)phenyl)-1H-imidazo[4,5-c]pyridine] | 5.15 | < 4.30 | 6.62
3 | Cc1nc(-c2ccc(N3CCC4(CC3)CN(C3CCC3)C4)cc2)cc2c1nc(-c1ccc(S(C)(=O)=O)cc1)n2C [Example 74, 6-(4-(2-cyclobutyl-2,7-diazaspiro[3.5]nonan-7-yl)phenyl)-1,4-dimethyl-2-(4-(methylsulfonyl)phenyl)-1H-imidazo[4,5-c]pyridine] | 5.96 | 5.43 | 7.42
4 | Cc1nc(-c2ccc(N3C[C@H]4CN(CC(C)C)C[C@H]4C3)cc2)cc2c1nc(-c1ccc(S(C)(=O)=O)cc1)n2C [Example 68, 6-(4-((3aR,6aS)-5-isobutylhexahydropyrrolo[3,4-c]pyrrol-2(1H)-yl)phenyl)-1,4-dimethyl-2-(4-(methylsulfonyl)phenyl)-1H-imidazo[4,5-c]pyridine] | 5.70 | 5.51 | 7.49
5 | Cc1nc(-c2ccc(N3CCN(CCCN4CCOCC4)CC3)cc2)cc2c1nc(-c1ccc(S(C)(=O)=O)cc1)n2C [Example 52, 4-(3-(4-(4-(1,4-dimethyl-2-(4-(methylsulfonyl)phenyl)-1H-imidazo[4,5-c]pyridin-6-yl)phenyl)piperazin-1-yl)propyl)morpholine] | 5.77 | 5.59 | 7.55
6 | COc1ccc(-c2nc3c(C)nc(-c4ccc(N5C[C@@H]6CN(C7CCC7)C[C@@H]6C5)cc4)cc3n2C)cc1OC [Example 66, 6-(4-((3aR,6aS)-5-cyclobutylhexahydropyrrolo[3,4-c]pyrrol-2(1H)-yl)phenyl)-2-(3,4-dimethoxyphenyl)-1,4-dimethyl-1H-imidazo[4,5-c]pyridine] | 5.64 | 4.70 | 7.54

Further compounds by rising pIC50 (human TLR7), results first:

Row | pIC50 (human TLR7) | pIC50 (human TLR8) | pIC50 (human TLR9) | Structure (SMILES)
7 | 5.04 | < 4.30 | 6.92 | Cc1nc(C2CCN(C3CCN(CC(C)(C)O)CC3)CC2)cc2c1nc(-c1ccc(S(C)(=O)=O)cc1)n2C [Example 40, 1-(4-(1,4-dimethyl-2-(4-(methylsulfonyl)phenyl)-1H-imidazo[4,5-c]pyridin-6-yl)-[1,4′-bipiperidin]-1′-yl)-2-methylpropan-2-ol]
8 | 5.52 | 6.00 | 6.62 | CC(C)CN1CC2(CCN(c3ccc(-c4cc5c(cn4)nc(-c4ccc(S(C)(=O)=O)cc4)n5C)cc3)CC2)C1 [Example 96, 6-(4-(2-isobutyl-2,7-diazaspiro[3.5]nonan-7-yl)phenyl)-1-methyl-2-(4-(methylsulfonyl)phenyl)-1H-imidazo[4,5-c]pyridine]
9 | 6.00 | 5.26 | 7.24 | Cc1nc(-c2ccc(CN3CCC(N4CCCC4)CC3)cc2)cc2c1nc(-c1ccc(S(C)(=O)=O)cc1)n2C [Example 46, 1,4-dimethyl-2-(4-(methylsulfonyl)phenyl)-6-(4-((4-(pyrrolidin-1-yl)piperidin-1-yl)methyl)phenyl)-1H-imidazo[4,5-c]pyridine]
10 | 6.00 | 5.13 | 6.66 | COc1ccc(-c2nc3c(C)nc(-c4ccc(N5CCN(C(C)C)CC5)cc4)cc3n2C)cc1OC [Example 1, 2-(3,4-dimethoxyphenyl)-6-(4-(4-isopropylpiperazin-1-yl)phenyl)-1,4-dimethyl-1H-imidazo[4,5-c]pyridine]
